Data published in patent US7981997B2, “Growth factor which acts through ErbB-4 RTK” (Yeda Research And Development Co., priority 2000, dated 2011).

Columns and labels:
[1] = system: D1 cells (32D expressing ErbB-1); assay: 32D cell proliferation, 24-hour dose-response MTT assay; type: cell-based; conditions: 24-hour dose-response, without IL-3
Procedure: The indicated derivative lines of 32D cells were tested for cell proliferation using the [3-(4,5-dimethylthiazol-2-yl)-2,5-diphenyl]tetrazolium bromide (MTT) assay. […] The MT assay was performed 24 hours later. Results are presented as percent induction over the control untreated cells, and are the mean±S.D. of 4 determinations. Each experiment was repeated at least twice with similar findings.
(§1) The establishment of a series of interleukin 3 (IL-3)-dependent 32D myeloid cells expressing all combinations of ErbB proteins has been described (Alimandi et al., 1997; Pinkas-Kramarski et al., 1996; Shelly et al., 1998). Cells were maintained in RPMI medium with 10% fetal bovine serum (FBS) and dilute IL3-containing conditioned medium. Prior to proliferation assays, cells were washed three times in RPMI/FBS and plated (5×10^5 cells/ml; 0.1 ml/well) into 96-well flat-bottomed plates with the indicated liconcentrations or with IL-3 (1:1000 dilution of conditioned medium). Cell survival was determined 24 hours later, or after the indicated time intervals, by MTT assay, as previously described (Mosman, 1983). MTT (0.05 mg/ml) was incubated with the analyzed cells for 2 hours at 37 C. Living cells can transform the tetrazolium ring into dark blue formazan crystals, that can be quantified by reading the optical density at 540-630 nm after lysis of the cells with acidic isopropanol. […]

[2] = system: D12 cells (32D co-expressing ErbB-1 and ErbB-2); assay: Long-term cell survival assay in the absence of IL-3 (MTT); type: cell-based; conditions: ligand 100 ng/ml, FIG. 3B
Procedure: FIG. 3b show survival effect of NRG-4 on ErbB-expressing derivatives of 32D cells. The indicated derivatives of 32D cells were incubated for various time intervals in the absence of IL-3. […] For control, cells were incubated with medium conditioned by IL-3-producing cells (open triangles), or with no factor (open circles). The extent of cell proliferation was determined daily by using the calorimetric MTT assay. The data presented are the mean±S.D. of 4 determinations. Note that co-expression of ErbB-1 and ErbB-2 (D12 cells) enabled cell survival in the absence of IL-3. The experiment was repeated twice with similar results.
as §1, with “Prior to proliferation assays, cells were washed three times in RPMI/FBS and plated (5×10^5 cells/ml; 0.1 ml/well) into 96-well flat-bottomed plates with the indicated liconcentrations or with IL-3 (1:1000 dilution of conditioned medium).” left out

**Q.** For “EGF: EGF (human, recombinant) purchased from Boehringer Mannheim (NSDSECPLSHDGYCLHDGVCMYIEALDKYACNCVVGYIGERCQYRDLKWWELR) [reference compound]”, which “mitogenic response of D1 cells” value [1] is on record?
**A.** The value was “retained”.

**Q.** And the “response of D12 cells (high basal proliferation activity)” value [2]?
**A.** Its value is “still responded”.
